In patent publication US10316039B2, “P2X3 and/or P2X2/3 compounds and methods” (Asana Biosciences, LLC, priority 2013, dated 2019):

Experiments:
[1] = molecular target: T1, P2X3 (UniProt P56373); assay: P2X3 FLIPR intracellular calcium assay; type: cell-based; details: agonist at EC75, species (human or rat) not given
T1 sequence (P56373 1-397): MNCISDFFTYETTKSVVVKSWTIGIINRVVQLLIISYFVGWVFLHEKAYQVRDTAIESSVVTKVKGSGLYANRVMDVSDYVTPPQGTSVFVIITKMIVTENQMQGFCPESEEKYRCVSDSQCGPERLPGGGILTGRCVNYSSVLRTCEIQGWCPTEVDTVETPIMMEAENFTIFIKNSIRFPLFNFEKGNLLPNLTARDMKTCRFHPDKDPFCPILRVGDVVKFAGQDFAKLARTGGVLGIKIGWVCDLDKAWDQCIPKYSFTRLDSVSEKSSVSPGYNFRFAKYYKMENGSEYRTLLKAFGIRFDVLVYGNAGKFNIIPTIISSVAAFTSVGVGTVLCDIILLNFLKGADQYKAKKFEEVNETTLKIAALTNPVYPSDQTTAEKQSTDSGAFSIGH
Source text: The FLIPR® assay utilizes cells which express human or rat P2X3 or P2X2/3 receptors. […] The PCR product obtained containing the protein coding sequence of rat P2X2 was cloned into EcoRV-digested and dephosphorylated vector pIRES-puro3 within the multiple cloning site (MCS). See, FIG. 1A.
Rat P2X3 (NCBI Accession No: X91167) was amplified by PCR from rat brain cDNA. The PCR product obtained containing the protein coding sequence of rat P2X3 was cloned into EcoRV-digested and dephosphorylated vector pCDNA-Hygro within the multiple cloning site (MCS) (FIG. 1B). Rat P2X3 cloned into pcDNA-Hygro was then subcloned into pcDNA-5/TO at HindIII (5′) and XhoI (3′) sites within the multiple cloning site (MCS) of the vector (FIG. 1C).
(§1) Transfection was carried out using super-coiled constructs (purified using QIAGEN kit) in antibiotic free, serum free DMEM using Lipofectamine® 2000 (Invitrogen) transfection agent. The DNA constructs rat P2X2 in pIRES-Puro3 and rat P2X3 in pCDNA5/TO were co-transfected into TRex293 cells in order to generate the rP2X2/3 stable line. 50 μg/mL hygromycin (Invitrogen) and 0.5 μg/mL puromycin (Fermentek) were used for selection of stable clones of rP2X2/3. Rat P2X3 in pCDNA5/TO DNA construct was transfected to CHO-TRex cells to generate the rP2×3 stable line and 500 μg/mL hygromycin (Invitrogen) was used as selection antibiotic. Transfected stable colonies were then functionally verified and robust clones suitable for assay were clonally purified through dilutions.
(§2) Cryo-vial containing 6×10^6 cells (human P2X3-HEK/human P2X2/3-TRex293/rat P2X2/3-TRex293/rat P2X3 TRex-CHO) was thawed in a 37° C. water bath. Cells were suspended in 20 mL of respective cell plating media (See annexure for composition) in a 50 mL centrifuge tube. The cell viability was checked with the help of Trypan Blue dye. Upon washing, cells were plated in a black 384-well clear bottomed, sterile poly-D-lysine coated plate such that, each well contained 10,000 cells (15,000/well for hP2X3) in 30 μL cell plating media. The plate was incubated in a 5% CO2 incubator at 37° C. for 24 h.
(§3) The next day, prior to the assay, the cell plating media was removed from each well by decanting and gentle tapping. Thirty μL of FLIPR Calcium 4 dye solution was added to each well. The plate was incubated at 37° C. for 45 min (60 min for hP2X3). The plate was next equilibrated at room temperature for 15 minutes before placing it in a 384 well FLIPR for the assay.
Dilutions were mixed with assay buffer just before performing the assay.
(§4) Compounds were added to the respective wells of the assay-ready cell plate with the help of the FLIPR and fluorescence readings were captured for 5 min to observe any possible agonistic property of the compounds. The plate was then incubated at room temperature for 15 min. The cells were stimulated with respective agonist EC75 concentration and the fluorescence readings were captured for another 5 min by FLIPR. The difference in fluorescence readings in presence of the compounds were compared with that of the control wells (wells having no compound) to calculate the inhibitory potency of the compounds. The IC50 values of the compounds were determined using the Graph pad Prism software.
(vi) Dye Solution Composition • 1×FLIPR Calcium 4 dye in assay buffer (Molecular devices Cat# R8141) • 1.8 mM Probenecid (Sigma Cat# P8761) • pH adjusted to 7.4

[2] = molecular target: T2, P2X2/3 (Homo sapiens, UniProt P56373+Q9UBL9); assay: P2X2/3 FLIPR intracellular calcium assay; type: cell-based; details: agonist at EC75, species (human or rat) not given
T2 sequence (Q9UBL9 1-471): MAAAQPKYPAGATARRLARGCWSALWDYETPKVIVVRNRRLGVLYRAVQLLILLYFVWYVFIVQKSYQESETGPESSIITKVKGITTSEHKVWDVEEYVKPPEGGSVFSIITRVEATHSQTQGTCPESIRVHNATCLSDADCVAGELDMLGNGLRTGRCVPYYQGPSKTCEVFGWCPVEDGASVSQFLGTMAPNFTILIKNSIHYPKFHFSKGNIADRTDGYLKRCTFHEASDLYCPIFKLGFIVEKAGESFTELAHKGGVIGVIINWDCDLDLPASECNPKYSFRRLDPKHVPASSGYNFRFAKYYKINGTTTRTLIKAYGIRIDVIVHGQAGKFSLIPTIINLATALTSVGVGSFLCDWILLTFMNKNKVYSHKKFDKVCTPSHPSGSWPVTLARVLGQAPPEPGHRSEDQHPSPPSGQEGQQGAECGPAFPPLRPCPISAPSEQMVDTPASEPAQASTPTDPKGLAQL
T2 sequence (P56373 1-397): T1 sequence (P56373 1-397)
Source text: The FLIPR® assay utilizes cells which express human or rat P2X3 or P2X2/3 receptors. Recombinant cells expressing hP2X3 (Cat#6188) and hP2X2/3 (Cat#6179) were procured from Chantest Corp. Rat P2X2 (NCBI Accession No: U14414) was amplified by PCR from PC12 cDNA (a rat adrenal medulla cell line). The PCR product obtained containing the protein coding sequence of rat P2X2 was cloned into EcoRV-digested and dephosphorylated vector pIRES-puro3 within the multiple cloning site (MCS). See, FIG. 1A.
as §1, §2, §3
Compounds were dissolved in DMSO and serially diluted following 11 point half log (3.16 fold) dilution with a starting concentration of 2 mM. Dilutions were mixed with assay buffer just before performing the assay.
as §4
(ii) Cell Plating Media for hP2X3-HEK and hP2X2/3-TRex293 Cells • DMEM/F12 (1:1) HAM media (Invitrogen; Cat#11039) • 1×NEAA (Invitrogen; Cat#11140) • 25 mM HEPES (Invitrogen; Cat#15630) • 1 mM sodium pyruvate (Invitrogen; Cat#11360) • 10% tetracycline negative FBS (PAA; Cat# A15-209) • 1 μg/mL doxycycline (Clontech; Cat#63131) [for hP2X2/3-TRex293 cells only]
(iii) Cell Plating Media for rP2X2/3-TRex293 Cells • DMEM media (Invitrogen; Cat#11965) • 25 mM HEPES (Invitrogen; Cat#15630) • 10% tetracycline negative FBS (PAA; Cat# A15-209) • 1 μg/mL Doxycycline (Clontech; Cat#63131)
(v) Assay Buffer Composition • HBSS (Invitrogen Cat#14025) • 20 mM HEPES (Invitrogen Cat#15630) • 0.01% F127 (Sigma Cat# P2443) • 1.8 mM CaCl2 (Sigma Cat# C5080) • pH adjusted to 7.4 […]

Row | SMILES | IC50 [1] [nM] | IC50 [2] [nM]
1 | COc1ncc(CNC(=O)c2cc(-n3nnnc3C(F)F)c3ncc(-c4ccc(C)s4)n3c2)cn1 [Example 169] | 1 to 100 | 1 to 100
2 | CC[C@H](NC(=O)c1cc(N2CCC(F)(F)CC2)c2ncc(-c3ccc(C)s3)n2c1)c1nnc[nH]1 [Example 144] | 100 to 1000 | 1 to 100
3 | CCCc1nnnn1-c1cc(C(=O)NCc2ccc(C)nc2)cn2c(-c3ccc(C)s3)cnc12 [Example 158] | > 10000 | 1 to 100
4 | Cc1cnc(CNC(=O)c2cc(N3CCC(C)CC3)c3ncc(-c4ccc(C)s4)n3c2)cn1 [Example 116] | 1000 to 10000 | 100 to 1000
5 | CCc1cnnn1-c1cc(C(=O)N[C@H](c2nnc[nH]2)C(C)C)cn2c(-c3ccc(C)s3)cnc12 [Example 73] | 100 to 1000 | 100 to 1000
6 | Cc1ccc(CNC(=O)c2cc(-c3cnn(C)c3)c3ncc(-c4ccc(C)s4)n3c2)cn1 [Example 98] | 1000 to 10000 | 100 to 1000
7 | Cc1ncc(CNC(=O)c2cc(-n3nncc3C(F)F)c3ncc(-c4ccc(C)s4)n3c2)cn1 [Example 31] | 1 to 100 | 1 to 100
8 | Cc1ccc(-c2cnc3c(-n4nncc4C(C)(F)F)cc(C(=O)N[C@@H](C)c4nnc[nH]4)cn23)s1 [Example 70] | 1 to 100 | 1 to 100
9 | Cc1ccc(-c2cnc3c(-n4nncc4C4CCC4)cc(C(=O)N[C@@H](C)c4nnc[nH]4)cn23)s1 [Example 43] | 1 to 100 | 1 to 100
10 | Cc1ncc(CNC(=O)c2cc(-n3nncc3CC(F)(F)F)c3ncc(-c4ccc(C)s4)n3c2)cn1 [Example 80] | 1 to 100 | 1 to 100
11 | Cc1cnc(-c2cnc3c(-n4nncc4C(C)(C)C)cc(C(=O)N[C@@H](C)c4nnc[nH]4)cn23)s1 [Example 57] | 1 to 100 | 100 to 1000
12 | Cc1ncc(CNC(=O)c2cc(-n3nnnc3C(F)F)c3ncc(-c4ccc(C)s4)n3c2)cn1 [Example 177] | 1 to 100 | 1 to 100
13 | Cc1noc([C@@H](C)NC(=O)c2cc(-n3nnnc3C(C)(F)F)c3ncc(-c4ccc(C)s4)n3c2)n1 [Example 186] | > 10000 | 1 to 100
14 | Cc1nnc([C@@H](C)NC(=O)c2cc(-n3nnnc3C(F)F)c3ncc(-c4ccc(C)s4)n3c2)o1 [Example 180] | 1 to 100 | 1 to 100
15 | Cc1ccc(-c2cnc3c(-c4cnn(C)c4)cc(C(=O)N[C@@H](C)c4nnc[nH]4)cn23)s1 [Example 8, (S)—N-(1-(4H-1,2,4-Triazol-3-yl)ethyl)-8-(1-methyl-1H-pyrazol-4-yl)-3-(5-methylthiophen-2-yl)imidazo[1,2-a]pyridine-6-carboxamide] | 1 to 100 | 100 to 1000
16 | Cc1ccc(CNC(=O)c2cc(-n3nncc3C(C)(F)F)c3ncc(-c4ncc(C)s4)n3c2)cn1 [Example 87] | 100 to 1000 | 100 to 1000
17 | Cc1cnc(-c2cnc3c(-c4c(C)noc4C)cc(C(=O)N[C@@H](C)c4nnc[nH]4)cn23)s1 [Example 109] | 1 to 100 | 100 to 1000
18 | Cc1ncc(CNC(=O)c2cc(-n3nnnc3C(F)F)c3ncc(-c4ccc(C)o4)n3c2)cn1 [Example 183] | 100 to 1000 | 100 to 1000
19 | Cc1ncc(CNC(=O)c2cc(-n3nncc3C3CCC3)c3ncc(-c4ncc(C)s4)n3c2)cn1 [Example 55] | > 10000 | 100 to 1000

Now from value to molecule:

Row | IC50 [1] [nM] | IC50 [2] [nM] | SMILES
20 | 1 to 100 | 1 to 100 | Cc1noc([C@@H](C)NC(=O)c2cc(-n3nncc3C(F)F)c3ncc(-c4ccc(C)s4)n3c2)n1 [Example 85]
21 | 100 to 1000 | 1000 to 10000 | Cc1ccc(CNC(=O)c2cc(Nc3ccccc3)c3ncc(-c4ccc(C)s4)n3c2)cn1 [Example 91]
22 | 1 to 100 | 100 to 1000 | CCc1nnnn1-c1cc(C(=O)N[C@@H](C)c2nnc[nH]2)cn2c(-c3ccc(C)s3)cnc12 [Example 178]
23 | 100 to 1000 | 1000 to 10000 | Cc1cnc(CNC(=O)c2cc(-n3nnnc3C(F)F)c3ncc(-c4ncc(C)s4)n3c2)cn1 [Example 185]
24 | 1 to 100 | 1 to 100 | Cc1ncc(CNC(=O)c2cc(-n3nncc3C(F)F)c3ncc(-c4ccc(C)o4)n3c2)cn1 [Example 65]
25 | 1 to 100 | 100 to 1000 | CCc1nnc(-c2cc(C(=O)NCc3ccc(C)nc3)cn3c(-c4ccc(C)s4)cnc23)o1 [Example 21]
26 | 100 to 1000 | 100 to 1000 | Cc1ccc(CNC(=O)c2cc(-n3nncc3C(F)F)c3ncc(-c4nnc(C)s4)n3c2)cn1 [Example 5, 8-(5-(Difluoromethyl)-1H-1,2,3-triazol-1-yl)-3-(5-methyl-1,3,4-thiadiazol-2-yl)-N-((6-methylpyridin-3-yl)methyl)imidazo[1,2-a]pyridine-6-carboxamide]
27 | 1 to 100 | 100 to 1000 | Cc1ccc(CNC(=O)c2cc(-n3nncc3C(F)(F)F)c3ncc(-c4ncc(C)s4)n3c2)cn1 [Example 56]
28 | 100 to 1000 | 1000 to 10000 | C[C@H](NC(=O)c1cc(-n2nncc2C(F)F)c2ncc(-c3ccc(C#N)s3)n2c1)c1nnc[nH]1 [Example 51]
